Experimental data taken from patent US5552402A, “Five-membered heteroaromatic compounds as 5-HT receptor agonists” (Merck, Sharp & Dohme Ltd., priority 1994, dated 1996).
Counter-ions that a name gives are not always drawn.

Biological target: T1, 5-HT1 -like receptor (Oryctolagus cuniculus, UniProt P49144)
T1 construct: contraction of the saphenous vein of New Zealand White rabbits; from tissue; host or cells: saphenous vein of New Zealand White rabbits
Experiment: Agonist activity at 5-HT1-like receptor: contraction of the saphenous vein of New Zealand White rabbits
Conditions: rabbit saphenous vein; from plots of percentage 5-HT (1 μM) response against concentration of agonist; read-out: EC50 (agonist potency, contraction of saphenous vein)
Procedure: The activity of test compounds as agonists of the 5-HT1 -like receptor was measured in terms of their ability to mediate contraction of the saphenous vein of New Zealand White rabbits, using the procedure described in Arch. Pharm., 1990, 342, 111. Agonist potencies were calculated as EC50 values, from plots of percentage 5-HT (1 μM) response against the concentration of the agonist.

T1 sequence (P49144 whole entry): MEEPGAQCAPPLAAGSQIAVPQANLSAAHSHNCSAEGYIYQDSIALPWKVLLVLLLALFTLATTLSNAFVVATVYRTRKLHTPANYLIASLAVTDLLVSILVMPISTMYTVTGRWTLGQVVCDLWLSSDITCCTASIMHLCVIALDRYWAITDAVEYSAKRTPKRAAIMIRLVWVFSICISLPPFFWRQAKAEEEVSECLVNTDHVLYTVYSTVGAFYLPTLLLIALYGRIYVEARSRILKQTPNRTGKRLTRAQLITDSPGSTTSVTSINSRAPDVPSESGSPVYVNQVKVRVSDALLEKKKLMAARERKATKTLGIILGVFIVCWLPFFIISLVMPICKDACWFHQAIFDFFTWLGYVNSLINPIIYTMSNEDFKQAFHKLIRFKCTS

| EC50 [µM] | SMILES |
| --- | --- |
| < 5 | c1cc2[nH]cc(CCCN3CCNCC3)c2cc1-n1cnnc1 [Example 4, 1-(3-[5-(1,2,4-Triazol-4-yl)-1H-indol-3-yl]propyl)-4-(H)-piperazine. 3.5 Hydrogen Oxalate] |
| < 5 | CN1CCN(CCCc2c[nH]c3ccc(-n4cnnc4)cc23)CC1 [Example 5, 1-(3-[5-(1,2,4-Triazol-4-yl)-1H-indol-3-yl]propyl)-4-(methyl)piperazine. 3.5 Hydrogen Oxalate Monohydrate] |
